Measurements published in publication PMC9965906, “Discovery and Development Strategies for SARS-CoV-2 NSP3 Macrodomain Inhibitors” (Pathogens, 2023).
Where “and” joins values, the source holds several entries; their conditions need not be identical. Identical values can stand only once.

Target: SARS-CoV-2 NSP3 Mac1 (Severe acute respiratory syndrome coronavirus 2, UniProt P0DTD1)
Assay: biochemical
Assay type: binding
Conditions: MIDAS hit compounds and analogues; for inhibition at 125 µM: read-out: Inhibition at top concentration of 125 µM (%); for IC50 in µM / IC50: top concentration 125 µM, 8-point 1:1 dilution, duplicate; for IC50: read-out: IC50

Compound | inhibition at 125 µM | IC50 in µM | IC50 | Inhibition at top concentration of 125 µM (%)
CC1c2cccn2CCN1C(=O)c1cc(-c2cccs2)nc2c1cnn2C(C)C (stereo not shown) [IAL-MD0072, CC(C)N1N=CC=2C(=CC(=NC12)C3=CC=CS3)C(=O)N4CCN5C=CC=C5C4C] | 9.8% | Not measurable | – | –
Cc1cc(CN(C)C(=O)c2cc(-c3cccs3)nc3c2cnn3C(C)C)no1 [IAL-MD0073, CC(C)N1N=CC=2C(=CC(=NC12)C3=CC=CS3)C(=O)N(C)CC=4C=C(C)ON4] | 47% | Not measurable | – | –
CCn1ncc2c(C(=O)NCC(=O)N(C)C)cc(-c3cccs3)nc21 [IAL-MD0074, CCN1N=CC=2C(=CC(=NC12)C3=CC=CS3)C(=O)NCC(=O)N(C)C] | 77.7% | – | 25.3 µM | –
CC(C)n1ncc2c(C(=O)N3CCNC(=O)C3(C)C)cc(-c3cccs3)nc21 [IAL-MD0075, CC(C)N1N=CC=2C(=CC(=NC12)C3=CC=CS3)C(=O)N4CCNC(=O)C4(C)C] | 30.9% | Not measurable | – | –
CC(=O)Nc1cccc(C(=O)N2CCC(c3c[nH]c4ncccc34)CC2)c1 [IAL-MD0078, CC(=O)NC=1C=CC=C(C1)C(=O)N2CCC(CC2)C3=CNC=4N=CC=CC34] | 10.5% | Not measurable | – | –
COc1ccc(-c2cc(C(=O)Nc3nnc[nH]3)c3ccccc3n2)cc1 [IAL-MD0079, COC=1C=CC(=CC1)C=2C=C(C(=O)NC3=NN=CN3)C=4C=CC=CC4N2] | 16.3% | Not measurable | – | –
CC(C)n1ncc2c(C(=O)N3CCCCC3C(=O)N3CCCC3)cc(-c3cccs3)nc21 (stereo not shown) [IAL-MD0080, CC(C)N1N=CC=2C(=CC(=NC12)C3=CC=CS3)C(=O)N4CCCCC4C(=O)N5CCCC5] | 45.9% | Not measurable | – | –
CNC(=O)CN(C)C(=O)c1cc(-c2cccs2)nc2c1c(C)nn2C [IAL-MD0081, CNC(=O)CN(C)C(=O)C=1C=C(N=C2N(C)N=C(C)C12)C3=CC=CS3] | 53% | Not measurable | – | –
CC(=O)N1CCN(C(=O)c2cc(-c3ccccc3)nc3c2cnn3C(C)C)CC1 [IAL-MD0082, CC(C)N1N=CC=2C(=CC(=NC12)C=3C=CC=CC3)C(=O)N4CCN(CC4)C(=O)C] | – | Not measurable | – | Not measurable
CC(C)n1ncc2c(C(=O)N3CCCC3)cc(-c3cccs3)nc21 [IAL-MD0083, CC(C)N1N=CC=2C(=CC(=NC12)C3=CC=CS3)C(=O)N4CCCC4] | 47.4% | Not measurable | – | –
COc1ncccc1C(=O)N1CCC(c2c[nH]c3ncccc23)CC1 [IAL-MD0084, COC=1N=CC=CC1C(=O)N2CCC(CC2)C3=CNC=4N=CC=CC34] | 13.2% | Not measurable | – | –
CC(C)n1ncc2c(C(=O)N3CCCC(C)(O)C3)cc(-c3cccs3)nc21 (stereo not shown) [IAL-MD0086, CC(C)N1N=CC=2C(=CC(=NC12)C3=CC=CS3)C(=O)N4CCCC(C)(O)C4] | 47.7% | Not measurable | – | –
CC1CN(C(=O)c2cc(-c3cccs3)nc3c2cnn3C(C)C)C(C)(C)CO1 (stereo not shown) [IAL-MD0087, CC(C)N1N=CC=2C(=CC(=NC12)C3=CC=CS3)C(=O)N4CC(C)OCC4(C)C] | 22.3% | Not measurable | – | –
COc1ccc(-c2cc(C(=O)N(C)C)c3ccccc3n2)cc1 [IAL-MD0088, COC=1C=CC(=CC1)C=2C=C(C(=O)N(C)C)C=3C=CC=CC3N2] | 79.4% | – | 24 µM | –
O=C(O)c1cc(-c2ccc(OC(F)F)cc2)nc2ccccc12 [IAL-MD0089, OC(=O)C=1C=C(N=C2C=CC=CC12)C=3C=CC(OC(F)F)=CC3] | 5.7% | Not measurable | – | –
CC(C)n1ncc2c(C(=O)Nc3ccn(C)n3)cc(-c3cccs3)nc21 [IAL-MD0090, CC(C)N1N=CC=2C(=CC(=NC12)C3=CC=CS3)C(=O)NC=4C=CN(C)N4] | 11% | Not measurable | – | –
CCn1ncc2c(C(=O)NCCNC(C)=O)cc(-c3cccs3)nc21 [IAL-MD0092, CCN1N=CC=2C(=CC(=NC12)C3=CC=CS3)C(=O)NCCNC(=O)C] | 17.1% | Not measurable | – | –
CCCN(CC(=O)Nc1ccccc1C)C(=O)c1cc(-c2cccs2)nc2c1cnn2CC [IAL-MD0093, CCCN(CC(=O)NC=1C=CC=CC1C)C(=O)C=2C=C(N=C3N(CC)N=CC23)C4=CC=CS4] | 7.7% | Not measurable | – | –
COc1ccc(-c2cc(C(=O)O)c3ccccc3n2)cc1OC [IAL-MD0094, COC=1C=CC(=CC1OC)C=2C=C(C(=O)O)C=3C=CC=CC3N2] | 31.9% | Not measurable | – | –
CC(C#N)NC(=O)c1cc(-c2cccs2)nc2c1cnn2C(C)C (stereo not shown) [IAL-MD0095, CC(C)N1N=CC=2C(=CC(=NC12)C3=CC=CS3)C(=O)NC(C)C#N] | 19.8% | Not measurable | – | –
CCn1ncc2c(C(=O)N3CCCC(C)C3)cc(-c3ccccc3)nc21 (stereo not shown) [IAL-MD0096, CCN1N=CC=2C(=CC(=NC12)C=3C=CC=CC3)C(=O)N4CCCC(C)C4] | 3.9% | Not measurable | – | –

Compound | inhibition at 125 µM | IC50 in µM | IC50 | Inhibition at top concentration of 125 µM (%)
CCn1ncc2c(C(=O)Nc3ccc(C(N)=O)cc3)cc(-c3cccs3)nc21 [IAL-MD0097, CCN1N=CC=2C(=CC(=NC12)C3=CC=CS3)C(=O)NC=4C=CC(=CC4)C(=O)N] | 7.7% | Not measurable | – | –
CCCNC(=O)c1cc(-c2ccc(OC)cc2)nc2ccccc12 [IAL-MD0098, CCCNC(=O)C=1C=C(N=C2C=CC=CC12)C=3C=CC(OC)=CC3] | 22% | Not measurable | – | –
COc1ccc(-c2cc(C(=O)NCC(F)(F)F)c3ccccc3n2)cc1 [IAL-MD0099, COC=1C=CC(=CC1)C=2C=C(C(=O)NCC(F)(F)F)C=3C=CC=CC3N2] | 22.2% | Not measurable | – | –
COc1ccc(-c2cc(C(=O)Nc3cccnc3)c3ccccc3n2)cc1 [IAL-MD0100, COC=1C=CC(=CC1)C=2C=C(C(=O)NC=3C=CC=NC3)C=4C=CC=CC4N2] | 15.9% | Not measurable | – | –
COc1ccc(-c2cc(C(=O)Nc3cccc(S(=O)(=O)N(C)C)c3)c3ccccc3n2)cc1 [IAL-MD0101, COC=1C=CC(=CC1)C=2C=C(C(=O)NC=3C=CC=C(C3)S(=O)(=O)N(C)C)C=4C=CC=CC4N2] | 25.2% | Not measurable | – | –
COc1ccc(-c2cc(C(=O)NC3CC3)c3ccccc3n2)cc1 [IAL-MD0103, COC=1C=CC(=CC1)C=2C=C(C(=O)NC3CC3)C=4C=CC=CC4N2] | 38.4% | Not measurable | – | –
CC(C)n1ncc2c(C(=O)N(C)Cc3cccc(O)c3)cc(-c3cccs3)nc21 [IAL-MD0104, CC(C)N1N=CC=2C(=CC(=NC12)C3=CC=CS3)C(=O)N(C)CC=4C=CC=C(O)C4] | 18.4% | Not measurable | – | –
CC(C)n1ncc2c(C(=O)N3CCC(C)(CO)CC3)cc(-c3cccs3)nc21 [IAL-MD0106, CC(C)N1N=CC=2C(=CC(=NC12)C3=CC=CS3)C(=O)N4CCC(C)(CO)CC4] | 32.1% | Not measurable | – | –
CC(C)n1ncc2c(C(=O)N3CCC(C)(O)CC3)cc(-c3cccs3)nc21 [IAL-MD0107, CC(C)N1N=CC=2C(=CC(=NC12)C3=CC=CS3)C(=O)N4CCC(C)(O)CC4] | 40.5% | Not measurable | – | –
CC(CNC(=O)c1cc(-c2cccs2)nc2c1cnn2C(C)C)N1CCCCC1 (stereo not shown) [IAL-MD0108, CC(C)N1N=CC=2C(=CC(=NC12)C3=CC=CS3)C(=O)NCC(C)N4CCCCC4] | 60.5% | – | 68 µM and 67.8 µM | –
CCn1ncc2c(C(=O)N(Cc3ccccn3)C(C)C)cc(-c3ccccc3)nc21 [IAL-MD0109, CCN1N=CC=2C(=CC(=NC12)C=3C=CC=CC3)C(=O)N(CC=4C=CC=CN4)C(C)C] | – | Not measurable | – | Not measurable
O=C(c1ccc(NCC2CC2)nc1)N1CCC(c2c[nH]c3ncccc23)CC1 [IAL-MD0110, O=C(N1CCC(CC1)C2=CNC=3N=CC=CC23)C=4C=CC(NCC5CC5)=NC4] | 7.8% | Not measurable | – | –
CC1(C(=O)N2CCCC(c3c[nH]c4ncccc34)C2)CCC(=O)NC1 (stereo not shown) [IAL-MD0114, CC1(CCC(=O)NC1)C(=O)N2CCCC(C2)C3=CNC=4N=CC=CC34] | 13.4% | Not measurable | – | –
CNC(=O)c1ccc(C(=O)N2CCC(c3c[nH]c4ncccc34)CC2)cn1 [IAL-MD0115, CNC(=O)C=1C=CC(=CN1)C(=O)N2CCC(CC2)C3=CNC=4N=CC=CC34] | 9.3% | Not measurable | – | –
COCCN(CC(N)=O)C(=O)c1cc(-c2cccs2)nc2c1c(C)nn2C [IAL-MD0116, COCCN(CC(=O)N)C(=O)C=1C=C(N=C2N(C)N=C(C)C12)C3=CC=CS3] | 55.8% | Not measurable | – | –
CCn1ncc2c(C(=O)NCc3ccc(OC)nc3)cc(-c3cccs3)nc21 [IAL-MD0117, CCN1N=CC=2C(=CC(=NC12)C3=CC=CS3)C(=O)NCC=4C=CC(OC)=NC4] | 9.7% | Not measurable | – | –
COc1ccc(-c2cc(C(=O)Nc3ccc4ccccc4c3)c3ccccc3n2)cc1 [IAL-MD0118, COC=1C=CC(=CC1)C=2C=C(C(=O)NC=3C=CC=4C=CC=CC4C3)C=5C=CC=CC5N2] | 25.6% | Not measurable | – | –
CCn1ncc2c(C(=O)NC(C)c3ccccn3)cc(-c3cccs3)nc21 (stereo not shown) [IAL-MD0119, CCN1N=CC=2C(=CC(=NC12)C3=CC=CS3)C(=O)NC(C)C=4C=CC=CN4] | 6.3% | Not measurable | – | –
CCn1ncc2c(C(=O)NC(C)c3ccncc3)cc(-c3cccs3)nc21 (stereo not shown) [IAL-MD0120, CCN1N=CC=2C(=CC(=NC12)C3=CC=CS3)C(=O)NC(C)C=4C=CN=CC4] | 8.9% | Not measurable | – | –
Cc1nn(C)c2nc(-c3cccs3)cc(C(=O)NC3CCOCC3)c12 [IAL-MD0121, CC1=NN(C)C=2N=C(C=C(C(=O)NC3CCOCC3)C12)C4=CC=CS4] | 17.8% | Not measurable | – | –
